The values below come from patent publication US8431530B2, “Compositions and methods for treating aids or cancer by inhibiting the secretion of microparticles” (priority 2009, dated 2013).

One assay concerns R7; Magi/CXCR4 cells. Nature of the assay: Magi assay of viral infectivity, supernatants of Jurkat cells. Format: cell-based, HIV. Particulars: for blue staining (productively infected) Magi/CXCR4 cells: 48 hour conditioned supernatant of Jurkat cells transfected with R7 and peptide, X-Gal. The procedure: Magi/CXCR4 cells were exposed to 48 hour conditioned supernatants from Jurkat cells, HEK293 cells, THP-1 monocytes, or U937 monocytes transfected with either R7 viral DNA/SMRwt peptide or R7 viral DNA/SMRmt peptide. These cells were then fixed and stained with X-Gal. […] Cells productively infected with R7 are easily visualized under light microscopy by their blue nuclear staining. Magnification ×20. […] This is indicative of virus in the conditioned supernatant from the R7/negative control peptide treated cells and no virus in conditioned supernatant from the R7/antagonist treated cells.
These Magi cultures were quantitated for blue staining cells. The data was plotted as a function of time post-transfection. […] This is possibly due to antagonism of trafficking of viral component(s) to the cytoplasmic membrane. Ultimately this would shutdown the HIV infection and block progression to AIDS.

Assay [1] has as its system Gag-GFP + HIV-1wtNef-RFP secretion, Jurkat. Put plainly: Gag-GFP secretion in presence of wtNef-RFP, fluorescent plate reader assay. Format: cell-based. Conditions: for Secretion relative to untransfected cells: Jurkat, Gag-GFP + HIV-1wtNef-RFP + peptide, 48 hours. Here is the method:
(§1) Cells were transfected with the pQBI-HIV Gag-GFP construct, wtNef-RFP, and either the antagonist (SMRwt peptide), the negative control SMRmt peptide, or a random peptide sM1 with Chariot for 48 hours. The conditioned supernatants from these cultures were assayed for GFP fluorescence by plate reader.

The subject of assay [2] is Gag-GFP + HIV-1wtNef-RFP secretion, THP-1 Monocyte. The description is as above. In kind it is cell-based. Conditions: Gag-GFP + HIV-1wtNef-RFP + peptide, 48 hours. Here is the method:
as §1

The next assay concerns pNL4-3 in Jurkat cells. Put plainly: p24 assay of virion production after pNL4-3 co-transfection. In kind it is cell-based, HIV. Conditions: for amount of virus production (in words, Table I): 96 hours, pNL4-3 co-transfection; for p24 / Effect (a/b): Jurkat; for p24: co-transfected with pNL4-3; for Effect (a/b): p24 of sample / p24 of pNL4-3 + sM1. Here is the method:
I. Jurkat cells were co-transfected as shown below: (transfection efficiency 30-40% by Chariot Kit):
pNL4-3 is a clone containing the viral genome. Transfection into cells allows expression of the viral genome and ultimately virion formation and release. The amount of virion production in the extracellular supernatant is measured through p24 protein (viral protein). Samples were collected at 48 hours and 96 hours post-infection.
At 48 hr postinfection two plates in each group were removed and analyzed by: • a. p24 assay • b. Nef assay • c. Infectivity assay • At 96 hr postinfection the other two plates in each group were removed and analyzed by: • a. p24 assay • b. Nef assay • c. Infectivity assay

For another assay, the system named is MDA-MB-231 cells. Nature of the assay: Exosome (AChE marker) secretion from tumor cells, immunoblot. In kind it is cell-based, human. Conditions: MDA-MB-231, Chariot transfection, 48 hr, immunoblot densitometry normalized to tubulin; dose dependency in both compartments. The source says:
FIG. 1 is a composite of diagrams showing the synthetic HIV-1 NefSMRwt peptide (antagonist) and HIV-1 NefSMRmt peptide (negative control) (panel A); the vector constructs expressing HIV-1 NefSMRwt peptide fused with GFP or HIV-1 NefSMRmt peptide fused with GFP (panel B); and the amount of acetylcholinesterase, a marker for exosomes, in MDA-MB-231 cells transfected with either HIV-1 NefSMRwt peptide (panelC) or SMRmt peptide (panel D). Untransfected MDA-MB-231 cells were used as negative controls. The cells were cultured for 48 hours in serum-free medium. One ml of supernatant was spun at 400,000×g. Supernatant pellets or set volume of cell lysate were run on PAGE, blotted, and probed with anti-AchE mAb (Acetylcholinesterase—1:1000 dilution; marker for exosomes). The cell lyasates were reprobed with anti-Tubulin mAb (1:4000). Bands were measured by densitometry, normalized against intracellular tubulin. Data shown here as percent relative to the untransfected control.
MDA-MB-231 cells were derived from human breast adenocarcinoma and […], and were obtained from the American Type Culture Collection (Manassas, Va.). […]
Pellets were resuspended in 1×SDS-PAGE loading buffer, separated by SDS-PAGE. […] Protein bands were detected by Western Blotting Luminol Reagent (Santa Cruz Biotechnology, Inc., Santa Cruz, Calif.). […]
A general note: In western blotting, separated proteins are transferred to a membrane and probed.

Take H-VGFPVAAVGFPVDYKDDDDK-OH [SMRwt]: the “blue staining (productively infected) Magi/CXCR4 cells” value with R7; Magi/CXCR4 cells is reported as “drastically reduced numbers of blue staining cells”. The “numbers of infected Magi cells as a function of time post-transfection” value with R7; Magi/CXCR4 cells (supernatant from transfected Jurkat cells) was “significantly reduced”. For the same substance, the “release of Gag virus-like particles in the presence of wtNef-RFP (in words, Table III)” value in assay [1] (Jurkat and THP-1, Gag-GFP + wtNef-RFP) is on record as “blocks release of Gag virus-like particles”. The “Secretion relative to untransfected cells” value was 1.3x in assay [1] (first line), 1.16x in assay [1] (second line (not explained)), 0.95x in assay [2] (first line) and 0.91x in assay [2] (second line (not explained)). Moreover, the “amount of virus production (in words, Table I)” value in the assay with pNL4-3 in Jurkat cells is on record as “reduced drastically”. For the same substance, the p24 with pNL4-3 in Jurkat cells (48 hr) and with pNL4-3 in Jurkat cells (96 hr) was 0 pg/mL each time. For the same substance, the “Effect (a/b)” value in the assay with pNL4-3 in Jurkat cells (48 hr) is given as 1; in the assay with pNL4-3 in Jurkat cells (96 hr), below 0.033. In the assay on MDA-MB-231 cells, the “AChE (exosome marker) intracellularly and in the cell supernatant” value was “knocked down AChE intracellularly and in the cell supernatant”.

As to “H2N-AGFPVAAAGFPVDYKDDDDK-OH (H-AGFPVAAAGFPVDYKDDDDK-OH) [SMRmt]”, the “blue staining (productively infected) Magi/CXCR4 cells” value in the assay on R7; Magi/CXCR4 cells is “many blue staining cells”. In addition, the “Secretion relative to untransfected cells” value in assay [1] (first line) is reported as 55.73x; in assay [1] (second line (not explained)) it was 43.51x; in assay [2] (first line) it was 49.27x; in assay [2] (second line (not explained)) it was 22.24x. Moreover, in the assay with pNL4-3 in Jurkat cells, the “amount of virus production (in words, Table I)” value is reported as “no effect”. Also, the p24 in the assay with pNL4-3 in Jurkat cells (48 hr) is 0 pg/mL; with pNL4-3 in Jurkat cells (96 hr) it was 15 pg/mL. In addition, the “Effect (a/b)” value came to 1 in the assay on pNL4-3 in Jurkat cells (48 hr) and 0.5 in the assay on pNL4-3 in Jurkat cells (96 hr). Also, the “AChE (exosome marker) intracellularly and in the cell supernatant” value in the assay on MDA-MB-231 cells is on record as “no effect”.
